Patent publication US9861606B2, “Therapeutic for treating inflammatory lung disorders” (University College Cardiff Consultants Limited, priority 2012, dated 2018)
“Also recorded” adds a separate entry of the source.

How the values were obtained:
BalbC mice = experiment: Inflammatory cell infiltration in BALF of OVA-sensitised mice; assay type: in vivo, mouse; settings: nebulised 3 micromolar
Description: FIG. 14. The calcilytic NPS89636 reduces inflammatory cell infiltration detected in the bronchioalveolar lavage fluid (BALF) from mice sensitized with OVA. 24 hours following the OVA sensitisation and nebulisation protocol described in detail in FIG. 13 in the presence of NS89636 (3 micromolar) or vehicle (0.3% DMSO), mice were killed and the BALF was collected by lavage. Cells from BALF were counted the same day using a haematocytometer. For differential cell count, BALF was concentrated by centrifugation 10 times, 100 microliters of the final solution was applied to a Cytospin 3 Shandon cell smearing system. The slides then were submerged into 1.5% Leisman stain in methanol for 6 min, then briefly washed in water twice, allowed to dry overnight, and the cells counted using 100× oil immersion objective. Data are presented as mean±S.E.M. Significant differences between vehicle and calcilytic are indicated, p<0.05, n=11.
Effect of the Calcilytic NPS 89636 on Inflammatory Cell Infiltration in the BALF of OVA-Sensitised Mice and LPS-Treated Guinea Pigs.
For the asthma model, OVA-sensitized mice were killed by a lethal overdose of sodium pentobarbitone (Euthatal), then using a cannula 1 ml of PBS was instilled into the lungs via an incision in the trachea. […]

human CaSR = molecular target: T1, human CaSR (Homo sapiens, UniProt P41180); experiment: Intracellular Ca2+ (fura-2, F/F0) in HEK293 cells stably expressing human CaSR; assay type: cell-based; settings: 100 nM calcilytic, HEK-CaSR
T1 construct: expressed in transfected cells; control HEK-0 with empty vector
T1 sequence (P41180 20-1078): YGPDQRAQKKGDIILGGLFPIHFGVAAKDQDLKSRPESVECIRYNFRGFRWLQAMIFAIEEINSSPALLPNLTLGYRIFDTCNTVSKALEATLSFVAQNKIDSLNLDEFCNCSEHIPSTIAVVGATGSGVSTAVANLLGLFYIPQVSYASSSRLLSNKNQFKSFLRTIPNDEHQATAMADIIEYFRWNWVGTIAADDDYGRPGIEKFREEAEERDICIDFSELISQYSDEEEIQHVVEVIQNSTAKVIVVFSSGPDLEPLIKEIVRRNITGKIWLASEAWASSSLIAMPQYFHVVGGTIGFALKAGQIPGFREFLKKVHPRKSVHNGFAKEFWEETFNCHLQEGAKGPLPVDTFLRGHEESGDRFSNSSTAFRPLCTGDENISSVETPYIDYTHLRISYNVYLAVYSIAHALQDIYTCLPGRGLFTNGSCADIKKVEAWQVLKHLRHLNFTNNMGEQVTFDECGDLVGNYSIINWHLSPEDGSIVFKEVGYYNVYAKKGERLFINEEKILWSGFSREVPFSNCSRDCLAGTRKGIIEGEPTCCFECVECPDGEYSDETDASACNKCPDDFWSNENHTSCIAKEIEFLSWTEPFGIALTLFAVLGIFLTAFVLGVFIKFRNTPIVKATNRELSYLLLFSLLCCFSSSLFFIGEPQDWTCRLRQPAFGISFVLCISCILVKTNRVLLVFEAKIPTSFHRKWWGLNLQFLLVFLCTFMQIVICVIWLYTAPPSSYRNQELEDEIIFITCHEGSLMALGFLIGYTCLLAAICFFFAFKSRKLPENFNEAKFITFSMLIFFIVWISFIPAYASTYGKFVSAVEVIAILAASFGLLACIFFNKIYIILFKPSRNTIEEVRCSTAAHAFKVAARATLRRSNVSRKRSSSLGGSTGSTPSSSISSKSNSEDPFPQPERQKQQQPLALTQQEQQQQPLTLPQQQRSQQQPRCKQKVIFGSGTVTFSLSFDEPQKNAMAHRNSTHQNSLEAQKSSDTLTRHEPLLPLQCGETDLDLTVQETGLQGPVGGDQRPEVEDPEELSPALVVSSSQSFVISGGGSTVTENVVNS
Description: The structurally unrelated calcilytic NPS2143 also prevents spermine-induced CaSR activation (D). […] Note that ECP serum concentrations in asthmatic subjects are believed to be 30 μg/ml. n=121-487 cells, 3-9 experiments. Data are mean±SEM. Where differences are significant, they are shown above the bars. FIG. 6. Ca^2+o activates the CaSR, an effect which can be prevented by the calcilytic NPS89636. HEK293 cells stably expressing the human CaSR (HEK-CaSR) or transfected with empty vector (HEK-0) were loaded with 4 μM fura-2 AM and exposed to 5 mM Ca^2+o in the absence or presence of the calcilytic, NPS89636 (100 nM). Data are from >3 experiments and 121-386 cells. Significant differences are shown above the bars. […] The ability of a structurally unrelated calcilytic, NPS2143 (1-10 μM), was also tested on spermine-induced Ca^2+i mobilisation in HEK-CaSR. Ca^2+i release was measured as peak/baseline fluorescence (F/F0). Note that ECP serum concentrations in asthmatic subjects increase with disease severity and are believed to reach 30 μg/ml.

[1] = system: mouse intralobular bronchi; experiment: Wire myography: effect of calcilytic on ACh-precontracted mouse intralobular bronchi; settings: 300 nM or 3 micromolar; ACh 1 micromolar precontraction; WT mice
Description: Second/third order intralobular bronchi were dissected from the lung left lobe of WT or CaSR KO mice, mounted in small vessel myograph. Bronchi were gradually stretched to reach 2 mN of passive tension. After 30 min of equilibration time, the reactivity of the bronchi was tested by addition of 40 mM KCl to the bath. […] Data are shown as mean±SEM percentage change from baseline. […] Bronchi were left to settle at 37° C. for 30 min, then gradually stretched to reach 2 mN of passive tension. After 30 min of equilibration time, the reactivity of the bronchi was tested by addition of 40 mM KCl to the bath.

`CCc1ccc(CC(C)(C)NCC(O)COc2cc(-c3ccc(C(=O)O)cc3)ccc2C#N)c(F)c1.Cl` (stereo in doubt) [NPS89636, (S)-4′-cyano-3′-[3-[2-(4-ethyl-2-fluorophenyl)-1,1-dimethylethylamino]-2-hydroxy-propoxy]-biphenyl-4-carboxylic acid hydrochloride] was tested, and the “Effect on OVA-evoked inflammatory cell infiltration into the lung (BALF)” value (BalbC mice) was “reduced”, the “Effect of calcilytic on polycation-evoked Ca2+i release (F/F0)” value (human CaSR; 300 nM poly-L-arginine, 1 mM spermine or 10 μg/ml ECP, hydrochloride) was “completely eliminated; also recorded: significantly reduced” and the “Effect of calcilytic on Ca2+i increase evoked by 5 mM Ca2+o” value (human CaSR) was “blocked”. The “Relaxation of acetylcholine-preconstricted intralobular bronchi” value [1] was “mild relaxation”.
